Results taken from US9677109B2, “Rapid determination of microbial growth and antimicrobial susceptibility” (priority 2013, dated 2017).

What was measured:
Type in all cases: cell-based
[1] = tested on: Staphylococcus aureus (SA); experiment: MADM clone growth in antibiotic agar, simulated blood specimens; settings: SA in 6 μg/mL FOX, FIG. 10B, three hours
Procedure: The MADM system used a custom microscope and pipetting robot, plus an evaluation system, as described herein. 32-channel disposable cassettes (FIG. 4A) enabled live microorganism immobilization for microscopy and fluid exchanges for different test agents. The microscope scanned 40 image fields in each flowcell channel, each channel having organisms extracted from about 3.5 μL of prepared inoculum.
Simulated blood specimens consisted of isolates spiked into 10 mL each of 29 aliquots of two short-fill CPD blood bank bags to make approximately 5 CFU/mL of bacterial target species, confirmed by quantitative culture. Spiked isolates included 14 Staphylococcus aureus (SA), 3 Pseudomonas aeruginosa (PA), or 12 non-target Gram-negative bacilli species. Dilution of each sample with 30 mL of modified TSB culture medium promoted growth. 20 additional control aliquots contained no spikes. 4-hour incubation at 35° C., followed with brief spin cleanup, ended with pellet resuspension into an electrokinetic buffer to make 1 mL samples for MADM system analysis. 20 μL sample aliquots were then pipetted into 14 cassette flowcells. A 5-minute low-voltage electrokinetic capture was performed to concentrate microorganisms on the lower surface of each flowcell where a capture coating immobilized the bacterial cells. […]

[2] = tested on: Staphylococcus aureus (STAU); experiment: MADM resistance phenotype test, respiratory specimens
Procedure: (ABCC). Concurrent quantitative culture (qCx) was performed on specimens.
20 μL samples of prepared specimen were pipetted into independent flowcell channels and a low-voltage electrical field was applied for 5 minutes. The electrical field concentrated bacteria onto a functional surface coating that immobilized the bacteria on the lower flowcell surface. Each flowcell channel received only one type of test reagent solution that contained a selective agent if required (only for channels used to test AB, sulbactam 32 μg/mL).
The instrument acquired images at 10-minutes intervals for 180 minutes, using 10 fields of view in each flowcell channel through a 20× objective. Imaging used darkfield illumination. Identification variables included response to selective agents (AB with sulbactam), cell morphology, growth morphology, and growth rate.
Identification algorithms applied to each individual immobilized bacterial cell. The system measured the amount of change in mass over time to compute growth rates. Identification consisted of computing and combining probability scores for morphology, response to selective media, and growth rates to produce a receiver operating characteristic curve (ROC) to derive classification criteria.

S. maltophilia (Steno) = experiment: MADM (BACcel) growth analysis sensitivity, surveillance mini-BAL
Procedure: (§1) Adult MICU patients with identified surrogate were included within 72 hours of intubation and if anticipated to require MV for >48 h. Moribund state or pregnancy were exclusions. Surveillance mini-BAL (Combicath, Plastimed) was performed on Day 1, 3, 5, 7 and 10 of MV. Samples were split and processed for both a) routine respiratory quantitative microbiological culture and sensitivity assays (>48 h result availability) and b) rapid (<8 h) flowcell/surface-capture assays using the MADM system. Viable microorganisms were identified using growth analysis enhanced by a focused VAP antibody panel (S. aureus, P. aeruginosa, A. baumannii). Untypable organisms were also reported. Sensitivity was assessed using growth analysis. Attending physicians were blinded to MADM system results.
(§2) BAL sample were prepared, removing debris and separating microorganisms from other sample material. Sample microorganisms were introduced into a multichannel fluidic cassette as described elsewhere herein. Bacteria were concentrated and retained on the lower surface of all flowcells using low-voltage electrical field (5 min). Antibody labeling of bacteria in flowcells was used to aid identification.
(§3) The automated digital microscopy system was used to perform darkfield imaging of 10 fields of view every 10 minutes for 180 minutes in each flowcell channel. Initial epifluorescence imaging was also performed for antibody detection. […] Identification consisted of probability scores based on microorganism morphology and growth rates. Antibody labeling identification data was also incorporated. Observed microorganisms were then classified as STAU, PSAE, or non-target. Antibiotic responses were used to aid identification when appropriate. Quantitation was performed by counting identified microorganism and computing original specimen CFU/mL.

Enteric = experiment: as above; settings: specimen 005-D7, BACcel ID Enteric, 1.26 × 10^5 CFU/ml
Procedure: as §1, §2, §3

S. aureus (STAU) = experiment: as above; settings: specimen 008-D7, BACcel ID STAU, 1.11 × 10^6 CFU/ml
Procedure: as §1, §2, §3

CO[C@@]1(NC(=O)Cc2cccs2)C(=O)N2C(C(=O)O)=C(COC(N)=O)CS[C@@H]21 [FOX, cefoxitin]
Clone growth [1]: growth indicating MRSA phenotype | MADM resistance phenotype ([2]; specimen DH 425, Mini-BAL): R | MADM resistance phenotype ([2]; specimen DH 427, Mini-BAL): S | MADM resistance phenotype ([2]; specimen DH 439, Mini-BAL): R | MADM resistance phenotype ([2]; specimen DH 440, BAL): S | MADM resistance phenotype ([2]; specimen DH 457, BAL): S | MADM resistance phenotype ([2]; specimen DH 485, BAL): S | MADM resistance phenotype ([2]; specimen DH 509, BAL): S | MADM resistance phenotype ([2]; specimen DH 514, Mini-BAL): S | MADM resistance phenotype ([2]; specimen DH 543, BAL): S | MADM resistance phenotype ([2]; specimen DH 550, BAL): S | MADM resistance phenotype ([2]; specimen DH 556, Mini-BAL): S | MADM resistance phenotype ([2]; specimen T12, ETA): R | Phenotype, sensitivity (S. maltophilia (Steno); specimen 006-D1, BACcel ID Steno, 7.68 × 10^5 CFU/ml): growth, TZP- | Phenotype, sensitivity (S. maltophilia (Steno); specimen 006-D3, BACcel ID Steno, 1.60 × 10^4 CFU/ml): growth, TZP- | Phenotype, sensitivity (Enteric): all growth | Phenotype, sensitivity (S. aureus (STAU)): FOX-R
